pIC50: −log10 of the molar value. Read-outs that look alike come from different tables or passages of the source.
Target: hPAD4 (Homo sapiens (Human), UniProt Q9UM07)
Assay: hPAD4 AR assay (Table 2)
Type: biochemical
Settings: for pIC50: read-out: hPAD4 AR IC50; for IC50: read-out: hPAD4 AR pIC50 (converted)

Sequence of hPAD4 (Q9UM07 whole entry): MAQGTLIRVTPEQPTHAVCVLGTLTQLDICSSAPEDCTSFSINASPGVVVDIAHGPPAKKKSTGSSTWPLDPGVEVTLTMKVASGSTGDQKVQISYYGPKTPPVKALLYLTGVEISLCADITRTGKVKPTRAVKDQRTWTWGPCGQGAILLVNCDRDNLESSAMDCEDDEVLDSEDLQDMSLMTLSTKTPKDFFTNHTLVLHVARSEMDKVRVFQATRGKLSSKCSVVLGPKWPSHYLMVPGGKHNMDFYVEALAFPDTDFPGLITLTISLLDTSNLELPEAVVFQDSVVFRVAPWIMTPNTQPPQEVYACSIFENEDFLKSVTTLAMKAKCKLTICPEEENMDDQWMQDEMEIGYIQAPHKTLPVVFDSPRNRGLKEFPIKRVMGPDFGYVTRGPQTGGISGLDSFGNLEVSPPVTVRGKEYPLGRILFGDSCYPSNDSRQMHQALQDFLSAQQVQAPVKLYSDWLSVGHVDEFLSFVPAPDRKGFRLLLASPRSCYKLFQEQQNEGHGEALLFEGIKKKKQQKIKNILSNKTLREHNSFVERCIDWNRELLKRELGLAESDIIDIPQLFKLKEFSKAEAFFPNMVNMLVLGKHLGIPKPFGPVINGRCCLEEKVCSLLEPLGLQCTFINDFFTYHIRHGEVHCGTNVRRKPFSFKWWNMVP

SMILES	pIC50	IC50 [nM]
Cn1c(-c2cnc(-c3ccccc3)n2CC2CC2)nc2cc(C(=O)N3C[C@H]4CC[C@@H]3[C@@H]4N)cc(F)c21 [I-87]	> 6.00	< 1000
COc1cc(C(=O)N2C[C@H]3CC[C@@H]2[C@@H]3N)cc2nc(-c3ccc(C#N)n3C3CC3)n(C)c12 [I-81, 5-{5-[(1R,4R,7R)-7-Amino-2-azabicyclo[2.2.1]heptane-2-carbonyl]-7-methoxy-1-methyl-1H-1,3-benzodiazol-2-yl}-1-cyclopropyl-1H-pyrrole-2-carbonitrile]	> 6.00	< 1000
COc1cc(C(=O)N2C[C@H]3CC[C@@H]2[C@@H]3N)cc2nc(-c3ccc(C)nc3CC3CC3)n(C)c12 [I-115]	> 6.00	< 1000
COc1cc(C(=O)N2C[C@H]3CC[C@@H]2[C@@H]3N)cc2nc(-c3cccnc3CC3CC3)n(C)c12 [I-105, (1R,4R,7R)-2-{2-[2-(Cyclopropylmethyl)pyridin-3-yl]-7-methoxy-1-methyl-1H-1,3-benzodiazole-5-carbonyl}-2-azabicyclo[2.2.1]heptan-7-amine]	> 6.00	< 1000
COc1cc(C(=O)N2C[C@H]3CC[C@@H]2[C@@H]3N)cc2nc(-c3ccc(C#N)n3C[C@H]3C[C@@](C)(OC)C3)n(C)c12 [I-89, 5-{5-[(1R,4R,7R)-7-Amino-2-azabicyclo[2.2.1]heptane-2-carbonyl]-7-methoxy-1-methyl-1H-1,3-benzodiazol-2-yl}-1-{[(1R,3S)-3-methoxy-3-methylcyclobutyl]methyl}-1H-pyrrole-2-carbonitrile]	> 6.00	< 1000
COc1cc(C(=O)N2C[C@H]3CC[C@@H]2[C@@H]3N)cc2nc(-c3ccc(F)nc3CC3CC3)n(C)c12 [I-117, (1R,4R,7R)-2-{2-[2-(Cyclopropylmethyl)-6-fluoropyridin-3-yl]-7-methoxy-1-methyl-1H-1,3-benzodiazole-5-carbonyl}-2-azabicyclo[2.2.1]heptan-7-amine]	> 6.00	< 1000
COc1cccc(-c2nc3cc(C(=O)N4C[C@H]5CC[C@@H]4[C@@H]5N)cc(OC)c3n2C)n1 [I-88]	< 5.00	10000 to 100000
COc1cc(C(=O)N2C[C@H]3CC[C@@H]2[C@@H]3N)cc2nc(-c3ccc(C#N)n3C[C@H](C)c3ccccc3)n(C)c12 [I-85]	> 6.00	< 1000
CCn1c(-c2cnc(-c3ccccc3)n2CC2CC2)nc2cc(C(=O)N3C[C@H]4CC[C@@H]3[C@@H]4N)cc(OC)c21 [I-86, (1R,4R,7R)-2-{2-[1-(Cyclopropylmethyl)-2-phenyl-1H-imidazol-5-yl]-1-ethyl-7-methoxy-1H-1,3-benzodiazole-5-carbonyl}-2-azabicyclo[2.2.1]heptan-7-amine]	> 6.00	< 1000
CCc1c(-c2nc3cc(C(=O)N4C[C@H]5CC[C@@H]4[C@@H]5N)cc(OC)c3n2C)ccn1S(=O)(=O)c1ccc(C)cc1 [I-92]	> 6.00	< 1000

Next, values leading:

pIC50	IC50 [nM]	SMILES
> 6.00	< 1000	COc1cc(C(=O)N2C[C@H]3CC[C@@H]2[C@@H]3N)cc2nc(-c3ccc(C)c(=O)n3CC3CC3)n(C)c12 [I-112, 6-{5-[(1R,4R,7R)-7-Amino-2-azabicyclo[2.2.1]heptane-2-carbonyl]-7-methoxy-1-methyl-1H-1,3-benzodiazol-2-yl}-1-(cyclopropylmethyl)-3-methyl-1,2-dihydropyridin-2-one]
> 6.00	< 1000	COc1cc(C(=O)N2C[C@H]3CC[C@@H]2[C@@H]3N)cc2nc(-c3ccc(C#N)n3CC(F)(F)F)n(C)c12 [I-82, 5-{5-[(1R,4R,7R)-7-Amino-2-azabicyclo[2.2.1]heptane-2-carbonyl]-7-methoxy-1-methyl-1H-1,3-benzodiazol-2-yl}-1-(2,2,2-trifluoroethyl)-1H-pyrrole-2-carbonitrile]
> 6.00	< 1000	COc1cc(C(=O)N2C[C@H]3CC[C@@H]2[C@@H]3N)cc2nc(-c3ccc(Br)c(=O)n3CC3CC3)n(C)c12 [I-111]
> 6.00	< 1000	COc1cc(C(=O)N2C[C@H]3CC[C@@H]2[C@@H]3N)cc2nc(-c3cccnc3CC3CC3C)n(C)c12 (some centres unmarked) [I-108]
> 6.00	< 1000	COc1cc(C(=O)N2C[C@H]3CC[C@@H]2[C@@H]3N)cc2nc(-c3ccc(C#N)n3C[C@@H](C)c3ccccc3)n(C)c12 [I-84]
> 6.00	< 1000	COc1cc(C(=O)N2C[C@H]3CC[C@@H]2[C@@H]3N)cc2nc(-c3cccc(=O)n3CC3CC3)n(C)c12 [I-102, 6-{5-[(1R,4R,7R)-7-Amino-2-azabicyclo[2.2.1]heptane-2-carbonyl]-7-methoxy-1-methyl-1H-1,3-benzodiazol-2-yl}-1-(cyclopropylmethyl)-1,2-dihydropyridin-2-one]

Source: patent US11198681B2, “Heteroaryl inhibitors of PAD4” (Padlock Therapeutics, Inc., priority 2016, dated 2021)
